Patent publication US20240309326A1, “Method of Isolating Adipose-Derived Cell Lines and Uses Thereof” (AGENCY FOR SCIENCE, TECHNOLOGY AND RESEARCH, priority 2021, published 2024)

Test system: Ph9F-1x
Experiment: Adipogenesis of fish adipose-derived cell line (AdipoRed / Hoechst 33342 staining)
Assay type: cell-based, Pangasianodon hypophthalmus
Conditions: for adipogenesis induction efficiency: addition to adipogenesis induction composition (FIGS. 22 and 25)
Protocol: Adipogenesis of adipose-derived cells were induced. The cells were resuspended at cell density of 100,000 cells/ml of complete growth medium and seeded at 100 μl/well into gelatin-coated 96-well flat-bottom black plates. The cells were incubated at 28° C. in a humidified atmosphere containing 5% CO2. […] After 3 and 6 days of adipogenic induction, the cells were induced with DMEM, 15% FBS, 0.1% fish serum, 300 U/ml of penicillin, 300 μg/mL of streptomycin, and adipogenic induction cocktail 2, containing 167 nM of insulin. Linoleic acid-oleic acid albumin (LAOA, Sigma-Aldrich), docosahexaenoic acid (DHA, Cayman Chemical), eicosapentaenoic acid (EPA, Cayman Chemical), oleic acid albumin (OAA, Sigma Aldrich), and linoleic acid albumin (LAA, Sigma Aldrich) can also be added to the adipogenic induction cocktail, if required. […] The cells were imaged using N-STORM/TIRF microscope and analysed using NIS-Element software.

[1] = 100 μM vitamin, Essential 6, fish serum, LAOA, IBMX, dexamethasone, after 6 days

Compound | percentage of matured adipocytes [1] | total lipid content [1] | further results
CC(C)(CO)[C@H](O)C(=O)NCCC(=O)O [D-pantothenic acid] | did not significantly enhance | did not significantly enhance | –
CC/C=C\C/C=C\C/C=C\C/C=C\C/C=C\C/C=C\CCC(=O)O [DHA, docosahexaenoic acid] | – | – | nuclei count after adipogenesis (100 μM, final 3 days of adipogenesis): significantly reduced
O=C(O)CCCC[C@@H]1SC[C@@H]2NC(=O)N[C@@H]21 [biotin] | did not significantly enhance | did not significantly enhance | –
O=C1O[C@H]([C@@H](O)CO)C(O)=C1O [vitamin C] | – | – | adipogenesis induction efficiency: no adverse effects
C=C1CC[C@H](O)C/C1=C/C=C1\CCC[C@]2(C)[C@@H]([C@H](C)CCCC(C)C)CC[C@@H]12 [vitamin D3] | did not significantly enhance | did not significantly enhance | total lipid content of matured adipocyte (intensity) (100 μM, 6 days, AdipoRed fluorescence intensity, borderline statistical significance): 3.5×10^9; adipogenesis induction efficiency: no adverse effects
CC(=O)Oc1c(C)c(C)c2c(c1C)CCC(C)(CCC[C@H](C)CCC[C@H](C)CCCC(C)C)O2 (stereo partly drawn) [α-tocopherol acetate] | did not significantly enhance | did not significantly enhance | –
oleic acid albumin [OAA] | – | – | percentage of matured adipocytes (100 μM, 6 days, as compared to LAA): significantly enhanced
